Experimental data taken from publication PMC8587101, “Design and Synthesis of Novel Betulin Derivatives Containing Thio-/Semicarbazone Moieties as Apoptotic Inducers through Mitochindria-Related Pathways” (Molecules, 2021).
Several values for one entry are separate records, joined by “and”; a condition that tells them apart may be missing. Identical values can stand only once. Entries after “also recorded” stand apart in the source; their conditions may differ. Like-named read-outs stand apart in the source and are kept apart here.

How the values were obtained:
MCF-7 cells [1] = experiment: Mitochondrial membrane potential (MMP) assay, JC-1, flow cytometry; format: cell-based, human; details: 24 h
Experimental: Mitochondria dysfunction has been proven to be an important role in inducing apoptosis in tumor cells. The loss of mitochondrial membrane potential (MMP) has been considered to be an early manifestation of mitochondrial dysfunction in apoptotic process. Thus, we tried to explore the contribution of mitochondria in compound-8f-induced apoptosis in MCF-7 cells. JC-1 cationic dye is an ideal MMP-sensitive probe, which can measure the MMP lost by flow cytometry.
MCF-7 cells were cultured into 12-well plates at a concentration of 1 × 10^6 cells/well of the RPMI-1640 medium. Then, cells were co-cultured with compound 8f (0, 3, 6 and 12 µM) for 24 h. After treatment, cells were stained with 3 µM cationic dye JC-1 at room temperature in the dark for 30 min according to the manufacturer’s instructions (BD Biosciences, San Jose, CA, USA). Finally, cells were harvested and washed with PBS twice, and then the results were recorded by flow cytometry analysis.

MCF-7 cells [2] = experiment: AO/EB staining, fluorescence microscope; format: cell-based, human; details: MCF-7, 0, 3, 6 and 12 μM, 24 h
Experimental: Firstly, the Acridine Orange/Ethidium Bromide (AO/EB) staining of MCF-7 cells treated with compound 8f was observed under a fluorescence microscope. A large number of normal cells in the control group were stained green and their nuclei were intact.
The MCF-7 cells in the logarithmic growth phase were cultured into 6-well plates (5 × 10^4 cells/mL). The cells incubated for overnight at 37 °C in an atmosphere of 5% CO2. Then the MCF-7 cells were treated with compound 8f (0, 3, 6 and 12 μM) for 24 h. The cover slip with monolayer MCF-7 cells was inverted on the glass slide with 20 μL of AO/BE stain (100 μg/mL). The fluorescence intensity was read using a fluorescence microscope (Zeiss, Oberserve A1, Oberkochen, Germany).

[3] = system: human breast carcinoma cells (MCF-7); experiment: MTT cytotoxicity assay, MCF-7; format: cell-based; details: for IC50: MTT, 48 h, means ± SD of three experiments, read-out: IC50 (μM) MCF-7
[4] = system: human colorectal cells (HCT-116); experiment: MTT cytotoxicity assay, HCT-116; format: cell-based; details: HCT-116, MTT, 48 h, means ± SD of three experiments, read-out: IC50 (μM) HCT-116
MCF-7 cells [5] = experiment: Western blot of apoptosis-related proteins; format: cell-based, human; details: MCF-7, 3, 6 and 12 µM, 24 h, GAPDH internal control
Experimental: To further explore the molecular mechanism of compound-8f-induced apoptosis in MCF-7 cells, the expression levels of the related apoptotic proteins Bcl-2, Bax, P53, caspase-3, caspase-9, cleaved caspase-3, cleaved caspase-9 and cytochrome c under treatment of compound 8f were carried out. MCF-7 cells were co-cultured with compound 8f at the gradient concentrations of 3, 6 and 12 µM for 24 h, and the related apoptotic proteins expression levels were tested by means of Western blotting. The GAPDH expression level was used as an internal control group. […] Meanwhile, the cleavage forms of the caspase proteins were evaluated (Figure 10). Compound 8f could also activated the expression levels of both cleaved caspase-3 and cleaved caspase-9 in a dose-dependent manner.
After treatment with compound 8f (0, 3, 6 and 12 µM), MCF-7 cells were harvested and lysed in RIPA buffer and boiled for 10 min at 100 °C. Equal amount of protein ([…]) were separated on a 10% SDS-PAGE gel and transferred to nitrocellulose membranes. The membranes were blocked with 5% BSA and probed with a 1:1000 dilution of primary antibody against Cl-caspase-3 (Cell Singaling Technology, Inc., Danvers, MA, USA), Cl-caspase-9 (Cell Singaling Technology Inc), P53 (Cell Singaling Technology, Inc; Danvers, MA, USA), Bcl-2 (Santa Cruz Biotechnology, Inc; Santa Cruz, CA, USA), Cytochrome c (Proteintech Group, Inc; Rosemont, IL, USA) and Bax (Proteintech Group, Inc; Rosemont, IL, USA). Then, the membranes were incubated with a 1:5000 dilution of horseradish peroxidase-conjugated secondary antibody for 2 h. Positive bands were visualized on a X-ray film using an enhanced chemiluminescence system (Kodak).

[6] = system: human lung carcinoma cells (A549); experiment: MTT cytotoxicity assay, A549; format: cell-based; details: A549, MTT, 48 h, means ± SD of three experiments, read-out: IC50 (μM) A549
[7] = system: normal human gastric epithelial cells (GES-1); experiment: MTT cytotoxicity assay, GES-1 normal cells; format: cell-based; details: GES1, MTT, 48 h, normal cells, means ± SD of three experiments, “-” not active, read-out: IC50 (μM) GES-1
MCF-7 cells [8] = experiment: Annexin V-FITC/PI apoptosis analysis by flow cytometry; format: cell-based, human; details: 24 h, control 10.54%
Experimental: In order to confirm whether tumor cell apoptosis was induced by compound 8f in tumor cells, the MCF-7 cells were stained in sequence with Annexin V-FITC (AV) and propidium iodide (PI). MCF-7 cells deal with compound 8f by gradient concentration (0, 3, 6 and 12 μM) for 24 h, and the rates of apoptotic cells were detected by flow cytometry.
Apoptosis was determined by staining cells with an Annexin VFITC/PI detection kit (BD Biosciences, San Jose, CA, USA). Briefly, MCF-7 cells were seeded on six-well plates (6 × 10^4 cells/mL) and incubated with compound 8f (0, 3, 6 and 12 μM) for 24 h. Cells were washed twice with cold PBS and resuspended in 500 μL of 1 × binding buffer, and then 10 μL of Annexin V-FITC and 5 μL of PI were applied to stain the cells for 15 min at room temperature in the dark. The status of stained cells was analyzed using a flow cytometer (BD, FACSCalibur, San Jose, CA, USA).

MCF-7 cells [9] = experiment: ROS level assay, H2DCFDA, flow cytometry; format: cell-based, human; details: MCF-7, 12 μM, 24 h; control group 2.61%
Experimental: In the past years, many studies reported that intracellular amounts of reactive oxygen species (ROS) play an important role in some kinds of biological processes in tumor cells. […] Therefore, we explored if ROS stimulated by compound 8f induced apoptosis in MCF-7 cells. Cells were treated with compound 8f by gradient concentration (0, 3, 6 and 12 μM) for 24 h and then using H2DCFDA staining analysis by flow cytometry.
MCF-7 cells were cultured into 12-well plate at a concentration of 1 × 10^6 cells/well for 24 h of the RPMI-1640 medium with 10% FBS. Then, cells were co-cultured with compound 8f (0, 3, 6 and 12 µM) for 24 h. Then, the MCF-7 cells were stained with 5 µM H2DCFDA solution (400 µL/well) at room temperature in the dark for 30 min. The cells were harvested and washed with PBS twice according to the manufacturer’s instructions (Thermo Fisher Scientific, Waltham, MA, USA). The results were obtained by flow cytometry.

C=C(C)[C@@H]1CC[C@]2(/C=N/NC(=S)Nc3cccc(Cl)c3)CC[C@]3(C)[C@H](CC[C@@H]4[C@@]5(C)CC[C@H](O)C(C)(C)[C@@H]5CC[C@]43C)[C@@H]12 [Compound 8f, Lup-20(29)-ene-3β-ol-28-N-(3-chlorophenyl)thiosemicarbazide]
JC-1 fluorescence intensity (upper quadrant) (MCF-7 cells [1]; MCF-7, 3 μM): 79.00% | JC-1 fluorescence intensity (upper quadrant) (MCF-7 cells [1]; MCF-7, 12 μM): 47.06% | AO/EB staining, cell morphology (MCF-7 cells [2]): some cells showed apoptotic characteristics | IC50 ([3]; Homo sapiens, MCF7, 48 h): < 10 µM | fold more potent than betulin ([3]; MCF-7, ratio of IC50 values): 3.32 fold | IC50 [3]: 5.96 µM and 5.86 µM | IC50 [4]: 24.7 ± 0.9 µM | expression level of Bax (MCF-7 cells [5]): upregulation; also recorded: increased | expression level of Bcl-2 (MCF-7 cells [5]): downregulation; also recorded: suppressed | expression level of P53 (MCF-7 cells [5]): upregulation; also recorded: increased | expression level of caspase-3 (MCF-7 cells [5]): activation; also recorded: activated | expression level of caspase-9 (MCF-7 cells [5]): activation; also recorded: activated | expression level of cleaved caspase-3 (MCF-7 cells [5]): activation; also recorded: activated | expression level of cleaved caspase-9 (MCF-7 cells [5]): activation; also recorded: activated | expression level of cytochrome c (cyt-c) (MCF-7 cells [5]): upregulation; also recorded: increased | IC50 [6]: 10.4 ± 0.74 µM | IC50 [7]: 215 ± 6.28 µM | percentage of apoptosis cells (MCF-7 cells [8]; MCF-7, 3 μM): 13.20% | percentage of apoptosis cells (MCF-7 cells [8]; MCF-7, 12 μM): 48.66% | generation of ROS level (MCF-7 cells [9]): 75.22%
